Experimental data from ChEMBL document CHEMBL4387747, “Discovery of naphthacemycins as a novel class of PARP1 inhibitors” (Bioorg Med Chem Lett, 2019).
Active and inactive are the calls of the source. The rule behind the calls is not given here.

How the values were obtained:
[1] = molecular target: T1, Poly [ADP-ribose] polymerase 1 (Homo sapiens, UniProt P09874); assay: Inhibition of recombinant human full length C-terminal His-tagged PARP1 expressed in Sf9 insect cells preincubated for 15 mins followed by NAD+ addition and measured after 40 mins by fluorescence based assay
T1 sequence (P09874 whole entry): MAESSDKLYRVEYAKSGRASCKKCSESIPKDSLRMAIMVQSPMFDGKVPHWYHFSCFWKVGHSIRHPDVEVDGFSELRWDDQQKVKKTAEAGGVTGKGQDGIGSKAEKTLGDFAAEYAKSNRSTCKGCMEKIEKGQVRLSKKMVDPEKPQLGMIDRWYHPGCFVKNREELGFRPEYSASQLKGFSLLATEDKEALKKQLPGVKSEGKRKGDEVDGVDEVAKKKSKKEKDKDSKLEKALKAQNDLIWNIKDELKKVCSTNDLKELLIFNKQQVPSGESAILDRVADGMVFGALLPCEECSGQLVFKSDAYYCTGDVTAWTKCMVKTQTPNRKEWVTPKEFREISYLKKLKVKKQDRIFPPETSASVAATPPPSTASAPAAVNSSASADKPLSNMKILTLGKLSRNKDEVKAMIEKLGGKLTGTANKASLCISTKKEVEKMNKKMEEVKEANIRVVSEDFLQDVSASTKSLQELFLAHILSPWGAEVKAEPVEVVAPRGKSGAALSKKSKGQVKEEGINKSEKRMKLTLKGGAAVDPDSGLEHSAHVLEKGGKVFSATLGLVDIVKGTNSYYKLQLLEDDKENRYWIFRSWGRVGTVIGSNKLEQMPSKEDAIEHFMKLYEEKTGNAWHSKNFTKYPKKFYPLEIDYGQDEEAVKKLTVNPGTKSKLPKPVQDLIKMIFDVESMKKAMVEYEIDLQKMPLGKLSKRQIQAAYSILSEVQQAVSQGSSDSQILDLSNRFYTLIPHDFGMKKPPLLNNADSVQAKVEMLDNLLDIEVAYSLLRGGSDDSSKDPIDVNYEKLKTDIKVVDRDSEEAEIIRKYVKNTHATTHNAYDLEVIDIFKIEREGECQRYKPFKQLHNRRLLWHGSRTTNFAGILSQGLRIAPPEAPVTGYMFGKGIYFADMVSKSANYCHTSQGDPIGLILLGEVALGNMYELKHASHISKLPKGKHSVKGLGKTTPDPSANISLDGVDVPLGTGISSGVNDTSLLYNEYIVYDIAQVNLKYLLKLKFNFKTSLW

MDA-MB-231 = assay: cells; details: Homo sapiens
MCF7 = assay: cells; details: Homo sapiens
MDA-MB-436 [2] = tested on: MDA-MB-436
MDA-MB-436 [3] = assay: Effect on whole cell PARP1 protein levels in MMS treated human MDA-MB-436 cells harboring BRCA1 mutation at 5 to 45 uM incubated for 4 hrs by Western blot analysis; type: functional, cell-based
[4] = molecular target: T1, Poly [ADP-ribose] polymerase 1; assay: Inhibition of PARP1 in MMS treated human MDA-MB-436 cells harboring BRCA1 mutation assessed as increase in PARP1 trapping in chromatin-bound fraction incubated for 4 hrs by Western blot analysis; type: cell-based
[5] = molecular target: T1, Poly [ADP-ribose] polymerase 1; assay: Inhibition of PARP1 in human MDA-MB-231 cells assessed as increase in gammaH2AX expression level incubated for 24 hrs by Western blot analysis; type: cell-based
[6] = molecular target: T1, Poly [ADP-ribose] polymerase 1; assay: Inhibition of PARP1 in human MDA-MB-436 cells harboring BRCA1 mutation assessed as decrease in PAR expression level incubated for 3 hrs by Western blot analysis; type: cell-based
[7] = molecular target: T1, Poly [ADP-ribose] polymerase 1; assay: Inhibition of PARP1 in human MDA-MB-436 cells harboring BRCA1 mutation assessed as increase in gammaH2AX expression level incubated for 24 hrs by Western blot analysis; type: cell-based
[8] = molecular target: T1, Poly [ADP-ribose] polymerase 1; assay: Inhibition of PARP1 in human MDA-MB-231 cells assessed as decrease in PAR expression level incubated for 3 hrs by Western blot analysis; type: cell-based

SMILES | IC50 [1] | IC50 (MDA-MB-231) | IC50 (MCF7) | IC50 (MDA-MB-436 [2]) | Activity (MDA-MB-436 [3]) | inhibition [4] | inhibition [5] | inhibition [6] | inhibition [7] | inhibition [8]
COc1c(Cl)c(O)c(Cl)c(C)c1-c1cc(O)c(Cl)c2cc3c(c(O)c12)C(=O)c1c(O)c(Cl)c(O)c(Cl)c1C3(C)C | 1.82 µM | > 40 µM | 28.8 µM | 4.95 µM |  |  |  |  |  | 
COc1cc(O)c(Cl)c(C)c1-c1cc(O)c(Cl)c2cc3c(c(O)c12)C(=O)c1c(cc(O)c(Cl)c1O)C3(C)C | 6.56 µM | > 40 µM | > 40 µM | 8.61 µM |  |  |  |  |  | 
COc1cc(O)c(Cl)c(C)c1-c1cc(O)cc2cc3c(c(O)c12)C(=O)c1c(cc(O)c(Cl)c1O)C3(C)C | 8.84 µM | 18.8 µM | 16.5 µM | 9.2 µM |  |  |  |  |  | 
COc1cc(O)c(Cl)c(C)c1-c1cc(O)cc2cc3c(c(O)c12)C(=O)c1c(O)cc(O)cc1C3(C)C | 4.86 µM | > 40 µM | > 40 µM | 10.5 µM |  |  |  |  |  | 
COc1cc(O)c(Cl)c(C)c1-c1cc(O)cc2cc3c(c(O)c12)C(=O)c1c(O)c(Cl)c(O)c(Cl)c1C3(C)C | 0.95 µM | > 40 µM | > 40 µM | 3.82 µM | inactive | Dose-dependent effect | Dose-dependent effect | Dose-dependent effect | Dose-dependent effect | Dose-dependent effect
O=C(c1cc(Cc2n[nH]c(=O)c3ccccc23)ccc1F)N1CCN(C(=O)C2CC2)CC1 [OLAPARIB] |  | > 40 µM | > 40 µM | 0.22 µM |  |  |  |  |  | 
COc1cc(O)cc(C)c1-c1cc(O)cc2cc3c(c(O)c12)C(=O)c1c(cc(O)c(Cl)c1O)C3(C)C | 15.4 µM | > 40 µM | > 40 µM | 20.2 µM |  |  |  |  |  | 
COc1cc(O)c(Cl)c(C)c1-c1cc(O)c(Cl)c2cc3c(c(O)c12)C(=O)c1c(O)c(Cl)c(O)c(Cl)c1C3(C)C | 5.88 µM | > 40 µM | > 40 µM | 9.27 µM |  |  |  |  |  | 
COc1cc(O)c(Cl)c(C)c1-c1cc(O)c(Br)c2cc3c(c(O)c12)C(=O)c1c(O)cc(O)cc1C3(C)C | 4.59 µM | > 40 µM | > 40 µM | 12.9 µM |  |  |  |  |  | 
